Assay results from patent publication US12103916B2, “Antifungal compounds” (University of Kentucky Research Foundation, priority 2016, dated 2024).
Read-outs that look alike come from different tables or passages of the source. Marks after values point to notes of the source that are not given here.

Columns and labels:
[1] = system: ergosterol biosynthetic pathway (sterol 14α-demethylase) in C. albicans ATCC 10231 (strain A); assay: Sterol composition by GC-MS, strain A; type: cell-based, Candida albicans
Excerpt: (§1) FIG. 7A-FIG. 7H includes FIG. 7A. A simplified ergosterol biosynthetic pathway and products resulting from inhibition of ERG11. FIG. 7B-G. include GC-MS chromatograms of the sterols extracted from untreated and antifungals treated C. albicans strains. […] The peaks are for lanosterol (1), ergosterol (2), eburicol (3), 14-alpha-methyl ergosta 8,24(28)-dien-3-beta,6-alpha-diol (4), and unknown sterols (5 and 6). FIG. 7H is a table summarizing the percentage of each sterol from panels B-G.
FIG. 13A. A simplified ergosterol biosynthetic pathway and products resulting from inhibition of ERG11. FIG. 13B-FIG. 13F. GC-MS chromatograms of the sterols extracted from untreated and antifungal-treated C. albicans ATCC 10231 (strain A). […] The peaks in these chromatograms are for lanosterol (1), ergosterol (2), eburicol (3), 14α-methyl ergosta-8,24(28)-dien-3β,6α-diol (4), and three unknown sterols (5-7). FIG. 13G includes a table summarizing the percentage of each sterol from panels B-F.
(§2) No drug controls were also performed (FIGS. 7D and G).
Determination of sterol composition in c. albicans in the presence and absence of drugs. […] By using gas chromatography-mass spectrometry (GC-MS), we investigated the potential of the synthetic compounds to exert their antifungal activity by inhibiting the sterol 14α-demethylase enzyme of the ergosterol biosynthetic pathway (FIG. 13). […] A no drug control was also performed (FIG. 13A).
Since out of our compounds displaying antifungal activity only compound 8 caused membrane disruption of C. albicans ATCC 10231 (strain A) in the membrane permeabilization assay (section 2.6), we decided to explore by using gas chromatography-mass spectrometry (GC-MS) the effect of compounds 8 and 9 on sterol composition during ergosterol biosynthesis (the mechanism of action of other conventional azoles). […] We also used VOR at 0.12 μg/mL and no drug control for comparison.

C. albicans ATCC 64124 [2] = assay: MIC determination, strain B; type: cell-based, Candida albicans; settings: Candida albicans, ATCC64124
Method: (§3) The antifungal activity of our new azole compounds 1-9 and 24-41 was first evaluated against a panel of seven Candida albicans strains (A-G), three non-albicans Candida strains […], and three Aspergillus strains (K-M) in a concentration range of 0.03-31.2 μg/mL (Table 1). […] For all of our azole derivatives we report their MIC-0 values against C. albicans ATCC 10231 (strain A) and all Aspergillus strains (K-M), which correspond to complete growth inhibition of these fungi. […] The commercially available antifungals AmB, FLC, ITC, POS, and VOR were used as reference drugs for comparison. The MIC values presented for these five control drugs were either tested herein or correspond to our previously published data^5, 16 as indicated in Table 1.
(§4) Antifungal activity in the absence or presence of serum. The antifungal activity of the newly prepared alkylated piperazine/morpholine-azole hybrids 16-28, of intermediate 14 that we used to verify that only final compounds exert antifungal activity, as well as that of alkylated piperazine/morpholine derivatives 1-10 were first evaluated against a panel of seven C. albicans (ATCC 10231 (A), ATCC 64124(R) (B), ATCC MYA-2876(S) (C), ATCC 90819(R) (D), ATCC MYA-2310(S) (E), ATCC MYA-1237(R) (F), and ATCC MYA-1003(R) (G)), three non-albicans Candida (C. glabrata ATCC 2001 (H), C. krusei ATCC 6258 (I), and C. parapsilosis ATCC 22019 (J)), and three Aspergillus (A. flavus ATCC MYA-3631 (K), A. nidulans ATCC 38163 (L), and A. terreus ATCC MYA-3633 (M)) strains using a concentration range of 0.03-31.3 μg/mL (Table 2).
(§5) Commercially available antifungal agents such as AmB, CAS, FLC, and VOR were used as positive controls for comparison. […] It is important to note that all comparisons to follow will be done by using the MIC values reported in μg/mL as the data were collected that way. However, we also present in parentheses in Table 2 the corresponding values in micromolar.
(§6) We used the commercially available antifungal agents such as AmB, caspofungin (CAS), FLC, and VOR as positive controls for comparison. For derivatives 5-16 as well as the reference drugs AmB and CAS, we reported MIC-0 values, which correspond to no visible growth. […] In this manuscript, we performed all activity comparisons by using the MIC values reported in μg/mL (Note: the corresponding MIC values are also provided in μM into parentheses in Tables 1, 2, S1, and S2).

[3] = system: C. albicans ATCC 90819(R); assay: MIC determination, strain D; type: cell-based, Candida albicans; settings: Candida albicans, ATCC90819
Method: as §3, §4, §5, §6

[4] = system: Candida parapsilosis ATCC 22019; assay: MIC determination, strain J; type: cell-based; settings: Lodderomyces parapsilosis, ATCC22019
Method: as §3, §4, §5, §6

Candida krusei ATCC 6258 [5] = assay: MIC determination, strain I; type: cell-based; settings: Pichia kudriavzevii, ATCC6258
Method: as §3, §4, §5, §6

[6] = system: C. albicans ATCC MYA-2310(S); assay: MIC determination, strain E; type: cell-based, Candida albicans; settings: Candida albicans
Method: as §3, §4, §5, §6

[7] = bulk form; cited from earlier work
[8] = system: C. albicans ATCC MYA-2876(S); settings: Table 1; strain C; control azoles; previously reported (refs 5, 16); cited from earlier work
[9] = system: Candida glabrata ATCC 2001; assay: MIC determination, strain H; type: cell-based; settings: Nakaseomyces glabratus, ATCC2001
Method: as §3, §4, §5, §6

[10] = system: Candida parapsilosis ATCC 22019; settings: Table 1; strain J; control azoles; previously reported (refs 5, 16); cited from earlier work
Candida krusei ATCC 6258 [11] = settings: Table 1; strain I; control azoles; previously reported (refs 5, 16); cited from earlier work
[12] = system: Candida glabrata ATCC 2001; settings: Table 1; strain H; control azoles; previously reported (refs 5, 16); cited from earlier work
[13] = system: C. albicans ATCC MYA-2876(S); assay: MIC determination, strain C; type: cell-based, Candida albicans; settings: Candida albicans
Method: as §3, §4, §5, §6

[14] = system: ergosterol biosynthetic pathway (sterol 14α-demethylase) in C. albicans ATCC 64124 (strain B); assay: Sterol composition by GC-MS, strain B; type: cell-based, Candida albicans; settings: Ex.1 series, 1.95 μg/mL
Excerpt: as §1, §2

[15] = system: C. albicans ATCC MYA-2310(S); settings: Table 1; strain E; control azoles; previously reported (refs 5, 16); cited from earlier work
[16] = system: Candida albicans ATCC 10231; settings: Table 1; strain A; control azoles FLC, ITC, POS, VOR; previously reported (refs 5, 16); cited from earlier work
C. albicans ATCC 64124 [17] = settings: Table 1; strain B; control azoles; previously reported (refs 5, 16); cited from earlier work
[18] = system: C. albicans ATCC MYA-1237(R); settings: Table 1; strain F; control azoles; previously reported (refs 5, 16); cited from earlier work
[19] = system: C. albicans ATCC 90819(R); settings: Table 1; strain D; control azoles; previously reported (refs 5, 16); cited from earlier work
[20] = system: Aspergillus flavus ATCC MYA-3631; settings: Table 1; strain K; control azoles; previously reported (refs 5, 16); cited from earlier work
[21] = system: C. albicans ATCC MYA-1003(R); settings: Table 1; strain G; control azoles; previously reported (refs 5, 16); cited from earlier work
[22] = system: Aspergillus nidulans ATCC 38163; settings: Table 1; strain L; control azoles; previously reported (refs 5, 16); cited from earlier work
[23] = system: Aspergillus terreus ATCC MYA-3633; settings: Table 1; strain M; control azoles; previously reported (refs 5, 16); cited from earlier work
[24] = read-out: MIC (MIC-2), in parentheses

Structure (SMILES): OC(Cn1cncn1)(Cn1cncn1)c1ccc(F)cc1F [FLC, fluconazole]
- ergosterol, percentage of sterols ([1]; Ex.1 series, 0.125 μg/mL): ~93%
- ergosterol (2), percentage of sterols ([1]; Ex.2 series, FLC 1.95, VOR 0.12, 20 0.48, 26 0.975 μg/mL): 95.90%
- MIC (C. albicans ATCC 64124 [2]; read-out: MIC (MIC-2)): > 125 µg/mL
- MIC (C. albicans ATCC 64124 [2]; [24]): > 408 µM
- MIC ([3]; read-out: MIC (MIC-2)): > 125 µg/mL
- MIC [3, 24]: > 408 µM
- MIC ([4]; read-out: MIC (MIC-2)): 1.95 µg/mL
- MIC [4, 24]: 6.4 µM
- MIC (Candida krusei ATCC 6258 [5]; read-out: MIC (MIC-2)): > 31.3 µg/mL
- MIC (Candida krusei ATCC 6258 [5]; [24]): > 102 µM
- MIC ([6]; read-out: MIC (MIC-2)): > 125 µg/mL
- MIC [6, 24]: > 408 µM
- solubility in organic solvents such as DMSO [7]: highly soluble
- solubility in water [7]: only slightly soluble
- MIC (MIC-2) [8]: 15.6^b μg/mL
- MIC ([9]; read-out: MIC (MIC-2)): > 31.3 µg/mL
- MIC [9, 24]: > 102 µM
- MIC (MIC-2) [10]: 1.95^c μg/mL
- MIC (MIC-2) (Candida krusei ATCC 6258 [11]): >31.2^c μg/mL
- MIC (MIC-2) [12]: >31.2^c μg/mL
- MIC ([13]; read-out: MIC (MIC-2)): 15.6 µg/mL
- MIC [13, 24]: 50.9 µM
- eburicol, percentage of sterols [14]: ~12%
- ergosterol, percentage of sterols [14]: ~48%
- lanosterol, percentage of sterols [14]: ~30%
- MIC (MIC-2) [15]: >125^b μg/mL

Structure (SMILES): CCC(C)n1ncn(-c2ccc(N3CCN(c4ccc(OCC5COC(Cn6cncn6)(c6ccc(Cl)cc6Cl)O5)cc4)CC3)cc2)c1=O (stereo not drawn) [ITC, itraconazole]
- MIC (MIC-2) [16]: 0.5^b μg/mL
- MIC (MIC-2) (C. albicans ATCC 64124 [17]): >62.5^b μg/mL
- MIC (MIC-2) [8]: 7.8^b μg/mL
- MIC (MIC-2) [18]: 31.2^b μg/mL
- MIC (MIC-2) [10]: 0.12^c μg/mL
- MIC (MIC-2) (Candida krusei ATCC 6258 [11]): 0.48^c μg/mL
- MIC (MIC-2) [19]: 31.2^b μg/mL
- MIC (MIC-2) [20]: 0.48^c μg/mL
- MIC (MIC-2) [21]: 31.2^b μg/mL
- MIC (MIC-2) [22]: 0.195^b μg/mL
- MIC (MIC-2) [12]: 7.8^c μg/mL
- MIC (MIC-2) [15]: 31.2^b μg/mL
- MIC (MIC-2) [23]: 0.975^c μg/mL

Structure (SMILES): CC[C@@H]([C@H](C)O)n1ncn(-c2ccc(N3CCN(c4ccc(OC[C@@H]5CO[C@@](Cn6cncn6)(c6ccc(F)cc6F)C5)cc4)CC3)cc2)c1=O [POS, posaconazole]
- MIC (MIC-2) [16]: 0.5^b μg/mL
- MIC (MIC-2) (C. albicans ATCC 64124 [17]): >62.5^b μg/mL
- MIC (MIC-2) [8]: 7.8^b μg/mL
- MIC (MIC-2) [18]: 15.6^b μg/mL
- MIC (MIC-2) [10]: <0.03^c μg/mL
- MIC (MIC-2) (Candida krusei ATCC 6258 [11]): 0.06^c μg/mL
- MIC (MIC-2) [20]: 0.24^c μg/mL
- MIC (MIC-2) [21]: 15.6^b μg/mL
- MIC (MIC-2) [22]: 0.195^b μg/mL
- MIC (MIC-2) [12]: 0.12^c μg/mL
- MIC (MIC-2) [15]: 31.2^b μg/mL
- MIC (MIC-2) [23]: 0.48^c μg/mL
